How the values were obtained:
Format in all cases: in vivo
[1] = tested on: equilibrium sodium-potassium; assay: mineralocorticoid effects in the adrenalectomized rats; conditions: at doses which provide the same pharmacological effect, vs prednisolone or hydrocortisone hemisuccinate
[2] = tested on: hepatic neoglycogenetic activity; assay: hepatic neoglycogenetic activity in adrenalectomized rats
Nystatin-induced oedema = Nystatin-induced oedema test (i.v.); conditions: antiinflammatory equivalent doses, at the 48th, 72nd, and 96th hours, vs prednisolone hemisuccinate and hydrocortisone hemisuccinate
endotoxin shock = assay: protection against endotoxin shock in mice; conditions: Mus musculus, sc
From the text: (§1) In the protection against anaphylactic shock and endotoxin shock in mice, the following results have been obtained: […]

[3] = tested on: carrageenin-induced oedema; assay: carrageenin-induced oedema test in rats (i.v.)
anaphylactic shock = assay: protection against anaphylactic shock in mice; conditions: Mus musculus, ip
From the text: as §1

[4] = relative to hydrocortisone hemisuccinate
[5] = relative to prednisolone hemisuccinate

CC1=NC2(C(=O)COC(=O)CCC(=O)O)C(CC3C4CCC5=CC(=O)C=CC5(C)C4C(O)CC32C)O1 (stereo not drawn) [Deflazacort hemisuccinate, 11β,21-dihydroxy-2'-methyl-5'H-pregna-1,4-dieno[17,16-d]oxazole-3,20-dione-21-hemisuccinate]
mineralocorticoid effects (effect on equilibrium sodium-potassium) [1]: affects the equilibrium sodium-potassium much less than prednisolone or hydrocortisone hemisuccinate
hepatic neoglycogenetic activity, times more potent than hydrocortisone hemisuccinate [2, 4]: ~40 times
hepatic neoglycogenetic activity, times more potent than prednisolone hemisuccinate [2, 5]: about 5 times
duration of antiphlogistic activity versus reference compounds (Nystatin-induced oedema): longer lasting antiphlogistic activity than the reference compounds
ED50 (endotoxin shock): 31 mg/kg
times more active than hydrocortisone hemisuccinate [3, 4]: 142 times
times more active than prednisolone hemisuccinate [3, 5]: 15 times
ED50 (anaphylactic shock): 22 mg/kg

CC12CCC(=O)C=C1CCC1C2C(O)CC2(C)C1CCC2(O)C(=O)COC(=O)CCC(=O)O (stereo not drawn) [Hydrocortisone hemisuccinate, hydrocortisone hemisuccinate]
ED50 (endotoxin shock): 180 mg/kg
ED50 (anaphylactic shock): 143 mg/kg

C[C@]12C=CC(=O)C=C1CC[C@@H]1[C@@H]2[C@@H](O)C[C@@]2(C)[C@H]1CC[C@]2(O)C(=O)COC(=O)CCC(=O)O [Prednisolone hemisuccinate, prednisolone hemisuccinate]
ED50 (endotoxin shock): 50.5 mg/kg
ED50 (anaphylactic shock): 35.5 mg/kg

Source: US4440764A, “Water soluble esters of steroid-oxazole and pharmaceutical compositions containing them” (Gruppo Lepetit S.p.A., priority 1980, dated 1984)
